In patent US20110177105A1, “Novel Selective Inhibitors of Ubiquitin Specific Protease 7, the Pharmaceutical Compositions Thereof and Their Therapeutic Applications” (priority 2010, published 2011):

Biological target: T1, Caspase 3 (Homo sapiens, UniProt P42574)
T1 sequence (P42574 29-175 limits assumed): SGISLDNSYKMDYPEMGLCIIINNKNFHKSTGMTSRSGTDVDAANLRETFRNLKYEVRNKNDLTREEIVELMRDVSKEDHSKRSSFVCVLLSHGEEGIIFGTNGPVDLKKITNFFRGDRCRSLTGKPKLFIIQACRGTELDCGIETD
T1 sequence (P42574 176-277 limits assumed): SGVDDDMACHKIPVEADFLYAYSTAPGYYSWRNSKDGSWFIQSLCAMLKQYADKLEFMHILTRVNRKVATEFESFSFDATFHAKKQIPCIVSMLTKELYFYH
Experiment: Caspase 3 activity assay (Ac-DEVD-AMC)
Assay type: biochemical
Settings: 250 nM Ac-DEVD-AMC, 1.6 nM enzyme
Description: Caspase 3 was diluted in Caspase 3 buffer (100 mM Hepes pH 7.5; 10% sucrose; 0.1% CHAPS). Compounds stocks (100 mM) were stored at −20° C. in DMSO. Compounds were tested at different concentrations: from 200 μM to 91 nM.
Reactions were performed as duplicates in Black 384 well plates (small volume microplates; Greiner; 10 μl final reaction volume). The substrate concentration for caspase 3 specificity assay was 250 nM (Ac-DEVD-AMC; Promega). The concentration of the enzyme (Caspase 3) in specificity assays was 1.6 nM. The concentrations were determined in order to perform specificity assays under initial velocities at fixed substrate concentration. Compounds were pre-incubated with enzymes for 30 minutes at 25° C. Reactions were initiated by addition of substrate to the plates containing the enzymes (+/−compounds) diluted in assay buffer. Reactions were incubated for 60 minutes at 37° C. Reactions were stopped by adding acetic acid (100 mM final). Readings were performed on a Pherastar Fluorescent Reader (BMG). λ Emission 380 nm; λ Excitation=460 nm. Data (mean values+/−standard deviation) were analyzed as % of control (no compound) and plotted as percentage versus the Log of the compound concentration using GraphPad (Prism). Data were fitted to a sigmoidal model (variable slope).

SMILES	IC50
CCN(CCCNC(=O)c1ccc2c(Cl)c3c(nc2c1)CCCC3)Cc1ccccc1 [Example 5, 9-Chloro-5,6,7,8-tetrahydro-acridine-3-carboxylic acid [3-(benzyl-ethyl-amino)-propyl]-amide]	> 200 µM
CCCN(CCC)CCCNC(=O)c1ccc2c(Cl)c3c(nc2c1)CCCC3 [Example 6, 9-Chloro-5,6,7,8-tetrahydro-acridine-3-carboxylic acid (3-dipropylamino-propyl)-amide]	> 200 µM
CCN(CC)CCCNC(=O)c1ccc2c(Cl)c3c(nc2c1)CCCC3 [Example 10, 9-Chloro-5,6,7,8-tetrahydro-acridine-3-carboxylic acid (3-diethylamino-propyl)-amide]	> 200 µM
CCCCN(CC)CCNC(=O)c1ccc2c(Cl)c3c(nc2c1)CCCC3 [Example 4, 9-Chloro-5,6,7,8-tetrahydro-acridine-3-carboxylic acid [2-(butyl-ethyl-amino)-ethyl]-amide]	> 200 µM
CN(CCCNC(=O)c1ccc2c(Cl)c3c(nc2c1)CCCC3)Cc1ccccc1 [Example 14, 9-Chloro-5,6,7,8-tetrahydro-acridine-3-carboxylic acid [3-(benzyl-methyl-amino)-propyl]-amide]	> 200 µM
CCCN(CCC)CCNC(=O)c1ccc2c(Cl)c3c(nc2c1)CCCC3 [Example 3, 9-Chloro-5,6,7,8-tetrahydro-acridine-3-carboxylic acid (2-dipropylamino-ethyl)-amide]	> 200 µM
CCN(CC)CCNC(=O)c1ccc2c(Cl)c3c(nc2c1)CCCC3 [Example 7, 9-Chloro-5,6,7,8-tetrahydro-acridine-3-carboxylic acid (2-diethylamino-ethyl)-amide]	> 200 µM
Cc1cccc(CN2CCC(CNC(=O)c3ccc4c(Cl)c5c(nc4c3)CCCC5)CC2)c1 [Example 1, 9-Chloro-5,6,7,8-tetrahydro-acridine-3-carboxylic acid [1-(3-methyl-benzyl)-piperidin-4-ylmethyl]-amide]	> 200 µM

Continued, values first:

IC50	SMILES
> 200 µM	O=C(NCCCN1CCCC1)c1ccc2c(Cl)c3c(nc2c1)CCCC3 [Example 8, 9-Chloro-5,6,7,8-tetrahydro-acridine-3-carboxylic acid (3-pyrrolidin-1-yl-propyl)-amide]
> 200 µM	CN(C)CCNC(=O)c1ccc2c(Cl)c3c(nc2c1)CCCC3 [Example 11, 9-Chloro-5,6,7,8-tetrahydro-acridine-3-carboxylic acid (2-dimethylamino-ethyl)-amide]
> 200 µM	CCN1CCCC1CNC(=O)c1ccc2c(Cl)c3c(nc2c1)CCCC3 (stereo not shown) [Example 2, 9-Chloro-5,6,7,8-tetrahydro-acridine-3-carboxylic acid (1-ethyl-pyrrolidin-2-ylmethyl)-amide]
> 200 µM	O=C(c1ccc2c(Cl)c3c(nc2c1)CCCC3)N1CCC(N2CCCCC2)CC1 [Example 16, [1,4′]Bipiperidinyl-1′-yl-(9-chloro-5,6,7,8-tetrahydro-acridin-3-yl)-methanone]
> 200 µM	CC1CCCC(C)N1CCCNC(=O)c1ccc2c(Cl)c3c(nc2c1)CCCC3 (stereo not shown) [Example 9, 9-Chloro-5,6,7,8-tetrahydro-acridine-3-carboxylic acid [3-(2,6-dimethyl-piperidin-1-yl)-propyl]-amide]
> 200 µM	O=C(c1ccc2c(Cl)c3c(nc2c1)CCCC3)N1CCCCCC1 [Example 12, Azepan-1-yl-(9-chloro-5,6,7,8-tetrahydro-acridin-3-yl)-methanone]
> 200 µM	CN1CCN(CCCNC(=O)c2ccc3c(Cl)c4c(nc3c2)CCCC4)CC1 [Example 15, 9-Chloro-5,6,7,8-tetrahydro-acridine-3-carboxylic acid [3-(4-methyl-piperazin-1-yl)-propyl]-amide]
> 200 µM	CCCN1CCN(CCCNC(=O)c2ccc3c(Cl)c4c(nc3c2)CCCC4)CC1 [Example 13, 9-Chloro-5,6,7,8-tetrahydro-acridine-3-carboxylic acid [3-(4-propyl-piperazin-1-yl)-propyl]-amide]
